The supplement of paper PMC10307832

Legend:
Assay in all cases: relative viability (nuclei count vs DMSO), 5 days (fraction); higher = more cells survive
NCI-H1734 = tested on: NCI-H1734
Outline: (§1)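 One day after seeding in 1536-well plates, lung cancer cell lines were dosed by pin tool. Dosing was either single-drug or a fixed anchor-drug dose plus five library-drug doses (not always all listed) in √10 steps. After 5 days, nuclei were stained in one fix-and-stain step and counted on 4× images, and relative viability is the nuclei count of treated wells over that of vehicle wells, given as the median of duplicate plates.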

NCI-H3122 = tested on: NCI-H3122
Outline: as §1

HOP-62 = tested on: HOP-62
Outline: as §1

NCI-H2126 = tested on: NCI-H2126
Outline: as §1

201T = tested on: 201T
Outline: as §1

NCI-H1755 = tested on: NCI-H1755
Outline: as §1

ChaGo-K-1 = tested on: ChaGo-K-1
Outline: as §1

NCI-H2009 = tested on: NCI-H2009
Outline: as §1

NCI-H322M = tested on: NCI-H322M
Outline: as §1

LK-2 = tested on: LK-2
Outline: as §1

NCI-H2170 = tested on: NCI-H2170
Outline: as §1

H3255 = tested on: H3255
Outline: as §1

NCI-H2087 = tested on: NCI-H2087
Outline: as §1

LXF-289 = tested on: LXF-289
Outline: as §1

NCI-H596 = tested on: NCI-H596
Outline: as §1

CAL-12T = tested on: CAL-12T
Outline: as §1

ABC-1 = tested on: ABC-1
Outline: as §1

NCI-H441 = tested on: NCI-H441
Outline: as §1

SK-MES-1 = tested on: SK-MES-1
Outline: as §1

PC-14 = tested on: PC-14
Outline: as §1

EMC-BAC-2 = tested on: EMC-BAC-2
Outline: as §1

NCI-H1651 = tested on: NCI-H1651
Outline: as §1

NCI-H647 = tested on: NCI-H647
Outline: as §1

O=c1[nH]c2ccccc2n1C1CCN(CCCC(c2ccc(F)cc2)c2ccc(F)cc2)CC1 [Pimozide] + COc1cccc2cc(-c3nc([C@H]4CC[C@H](C(=O)O)CC4)n4ncnc(N)c34)[nH]c12 [OSI-027] (partner 0.5 µM)
relative viability (NCI-H1734; first compound 0.08 µM): 0.604
relative viability (NCI-H1734; first compound 0.253 µM): 0.625
relative viability (NCI-H1734; first compound 2.53 µM): 0.581
relative viability (NCI-H1734; first compound 8 µM): 0.549
relative viability (NCI-H3122; first compound 0.08 µM): 1.01
relative viability (NCI-H3122; first compound 0.253 µM): 0.873
relative viability (NCI-H3122; first compound 0.8 µM): 0.826
relative viability (NCI-H3122; first compound 2.53 µM): 0.926
relative viability (NCI-H3122; first compound 8 µM): 0.822
relative viability (HOP-62; first compound 0.08 µM): 0.859
relative viability (HOP-62; first compound 0.253 µM): 0.806
relative viability (HOP-62; first compound 2.53 µM): 0.759
relative viability (HOP-62; first compound 8 µM): 0.773
relative viability (NCI-H2126; first compound 0.08 µM): 0.711
relative viability (NCI-H2126; first compound 0.253 µM): 0.63
relative viability (NCI-H2126; first compound 0.8 µM): 0.755
relative viability (NCI-H2126; first compound 2.53 µM): 0.712
relative viability (NCI-H2126; first compound 8 µM): 0.744
relative viability (201T; first compound 0.08 µM): 0.821
relative viability (201T; first compound 0.253 µM): 0.825
relative viability (201T; first compound 0.8 µM): 0.711
relative viability (201T; first compound 2.53 µM): 0.709
relative viability (201T; first compound 8 µM): 0.584
relative viability (NCI-H1755; first compound 0.08 µM): 0.678
relative viability (NCI-H1755; first compound 0.253 µM): 0.687
relative viability (NCI-H1755; first compound 0.8 µM): 0.678
relative viability (NCI-H1755; first compound 2.53 µM): 0.597
relative viability (NCI-H1755; first compound 8 µM): 0.51
relative viability (ChaGo-K-1; first compound 0.08 µM): 0.594
relative viability (ChaGo-K-1; first compound 0.253 µM): 0.555
relative viability (ChaGo-K-1; first compound 0.8 µM): 0.517
relative viability (ChaGo-K-1; first compound 2.53 µM): 0.531
relative viability (ChaGo-K-1; first compound 8 µM): 0.485
relative viability (NCI-H2009; first compound 0.08 µM): 0.69
relative viability (NCI-H2009; first compound 0.253 µM): 0.655
relative viability (NCI-H2009; first compound 0.8 µM): 0.671
relative viability (NCI-H2009; first compound 2.53 µM): 0.526
relative viability (NCI-H2009; first compound 8 µM): 0.416
relative viability (NCI-H322M; first compound 0.253 µM): 0.525
relative viability (NCI-H322M; first compound 0.8 µM): 0.508
relative viability (NCI-H322M; first compound 2.53 µM): 0.545
relative viability (NCI-H322M; first compound 8 µM): 0.572
relative viability (LK-2; first compound 0.08 µM): 0.183
relative viability (LK-2; first compound 0.253 µM): 0.249
relative viability (LK-2; first compound 0.8 µM): 0.179
relative viability (LK-2; first compound 2.53 µM): 0.198
relative viability (LK-2; first compound 8 µM): 0.167
relative viability (NCI-H2170; first compound 0.08 µM): 0.617
relative viability (NCI-H2170; first compound 0.253 µM): 0.628
relative viability (NCI-H2170; first compound 0.8 µM): 0.681
relative viability (NCI-H2170; first compound 2.53 µM): 0.692
relative viability (NCI-H2170; first compound 8 µM): 0.551
relative viability (H3255; first compound 0.253 µM): 0.514
relative viability (H3255; first compound 0.8 µM): 0.563
relative viability (H3255; first compound 2.53 µM): 0.6
relative viability (H3255; first compound 8 µM): 0.584
relative viability (NCI-H2087; first compound 0.08 µM): 0.765
relative viability (NCI-H2087; first compound 0.253 µM): 0.55
relative viability (NCI-H2087; first compound 2.53 µM): 0.427
relative viability (NCI-H2087; first compound 8 µM): 0.377
relative viability (LXF-289; first compound 0.08 µM): 0.693
relative viability (LXF-289; first compound 0.253 µM): 0.786
relative viability (LXF-289; first compound 0.8 µM): 0.773
relative viability (LXF-289; first compound 2.53 µM): 0.811
relative viability (LXF-289; first compound 8 µM): 0.716
relative viability (NCI-H596; first compound 0.08 µM): 0.627
relative viability (NCI-H596; first compound 0.253 µM): 0.851
relative viability (NCI-H596; first compound 0.8 µM): 0.642
relative viability (NCI-H596; first compound 2.53 µM): 0.627
relative viability (NCI-H596; first compound 8 µM): 0.481
relative viability (CAL-12T; first compound 0.08 µM): 0.756
relative viability (CAL-12T; first compound 0.253 µM): 0.706
relative viability (CAL-12T; first compound 0.8 µM): 0.673
relative viability (CAL-12T; first compound 2.53 µM): 0.41
relative viability (CAL-12T; first compound 8 µM): 0.561
relative viability (ABC-1; first compound 0.08 µM): 0.514
relative viability (ABC-1; first compound 0.253 µM): 0.496
relative viability (ABC-1; first compound 0.8 µM): 0.422
relative viability (ABC-1; first compound 2.53 µM): 0.351
relative viability (ABC-1; first compound 8 µM): 0.354
relative viability (NCI-H441; first compound 0.08 µM): 0.608
relative viability (NCI-H441; first compound 0.253 µM): 0.577
relative viability (NCI-H441; first compound 0.8 µM): 0.478
relative viability (NCI-H441; first compound 2.53 µM): 0.436
relative viability (NCI-H441; first compound 8 µM): 0.406
relative viability (SK-MES-1; first compound 0.08 µM): 0.61
relative viability (SK-MES-1; first compound 0.253 µM): 0.572
relative viability (SK-MES-1; first compound 0.8 µM): 0.546
relative viability (SK-MES-1; first compound 2.53 µM): 0.586
relative viability (SK-MES-1; first compound 8 µM): 0.463
relative viability (PC-14; first compound 0.08 µM): 0.182
relative viability (PC-14; first compound 0.253 µM): 0.743
relative viability (PC-14; first compound 0.8 µM): 0.764
relative viability (PC-14; first compound 2.53 µM): 0.624
relative viability (PC-14; first compound 8 µM): 0.621
relative viability (EMC-BAC-2; first compound 0.08 µM): 0.353
relative viability (EMC-BAC-2; first compound 0.253 µM): 0.337
relative viability (EMC-BAC-2; first compound 0.8 µM): 0.342
relative viability (EMC-BAC-2; first compound 2.53 µM): 0.338
relative viability (EMC-BAC-2; first compound 8 µM): 0.391
relative viability (NCI-H1651; first compound 0.08 µM): 0.657
relative viability (NCI-H1651; first compound 0.253 µM): 0.7
relative viability (NCI-H1651; first compound 0.8 µM): 0.633
relative viability (NCI-H1651; first compound 2.53 µM): 0.757
relative viability (NCI-H1651; first compound 8 µM): 0.596
relative viability (NCI-H647; first compound 0.08 µM): 0.656
relative viability (NCI-H647; first compound 0.253 µM): 0.71
relative viability (NCI-H647; first compound 0.8 µM): 0.677
relative viability (NCI-H647; first compound 2.53 µM): 0.611
relative viability (NCI-H647; first compound 8 µM): 0.404
